Assay [1] has as its target T1, S1P1 (Homo sapiens (Human), UniProt P21453). As to the kind of experiment: 35S-GTPγS binding, membranes from CHO cells expressing S1P1. The settings on record: CHO cell membranes. Format: biochemical. (In general: GTPγS resists hydrolysis and so accumulates on activated G proteins.)
Assay [2] addresses T1, S1P1. Description: Receptor binding assay, [33P]sphingosine 1-phosphate, membranes from CHO cells expressing S1P1. The settings on record: CHO cell membranes, 25 pM [33P]sphingosine 1-phosphate. Here is the method:
(§1) Receptor binding assay: Membranes were prepared from CHO cells expressing S1P1 or S1P3 for use in ligand and […] binding studies. Cells were suspended in 50 mM TRIS, pH 7.4, 2 mM EDTA, 250 mM Sucrose (buffer A) and 1× Complete protease inhibitor cocktail (Roche), and disrupted at 4° C. by N2 decompression using a cell disruption bomb (Parr Instrument). Following centrifugation at 1000 RPM for 10 min at 4° C., the supernatant was suspended in buffer A and centrifuged again at 19000 RPM for 60 min at 4° C. The pellet was then suspended in 10 mM HEPES, pH 7.4, 1 mM EDTA, 250 mM Sucrose (Buffer B), and 1× Complete EDTA-free protease inhibitor cocktail and homogenized using a potter. Membranes were flash frozen in liquid N2 and stored at −80° C. [33P]sphingosine 1-phosphate (3000 Ci/mmol; American Radiolabeled Chemicals, Inc.) was added to test compounds in DMSO. Membranes and WGA SPA beads (GE Healthcare) were added to give a final volume of 100 μl in 96-well plates with assay concentrations of 25 pM or 10 pM [33P]sphingosine 1-phosphate (respectively for S1P1 or S1P3), 50 mM HEPES, pH 7.5, 5 mM MgCl2, 100 mM NaCl, 0.4% fatty acid-free BSA, 1-5 μg/well of proteins and 100 μg/well of WGA SPA beads. Binding was performed for 60 min at RT on a shaker and bound radioactivity was measured on a PerkinElmer 1450 MicroBeta counter. Specific binding was calculated by subtracting remaining radioactivity in the presence of 1000-fold excess of unlabeled SIP. Binding data were analyzed using the GraphPad Prism program.

For another assay, the target named is S1P3 (Homo sapiens (Human), UniProt Q99500). As to the kind of experiment: 35S-GTPγS binding, membranes from CHO cells expressing S1P3. The settings on record: CHO cell membranes. Format: biochemical. The procedure:
as §1
Measurements of 35S-GTPγS Binding: Membranes (1 to 10 μg protein) prepared as described above, were incubated in 96-well Scintiplates (PerkinElmer) with test compounds diluted in DMSO, in 180 μl of 20 mM HEPES, pH 7.4, 10 mM MgCl2, 2 μg/well Saponin, 0.2% fatty acid free BSA (Assay buffer), 140 mM NaCl and 1.7 μM GDP. The assay was initiated with the addition of 20 μl of 1.5 nM [35S]-GTPγS (1100 Ci/mmol; GE Healthcare) in assay buffer. After 60 min incubation at 30° C. on a shaker, plates were centrifuged for 10 min at 2000 RPM. Supernatant was discarded and membrane bound radioactivity was measured on a PerkinElmer 1450 MicroBeta counter. Triplicate samples were averaged and expressed as % response relative to S1P activation in absence of compound (n=2).

T1 sequence (P21453 whole entry, species assumed): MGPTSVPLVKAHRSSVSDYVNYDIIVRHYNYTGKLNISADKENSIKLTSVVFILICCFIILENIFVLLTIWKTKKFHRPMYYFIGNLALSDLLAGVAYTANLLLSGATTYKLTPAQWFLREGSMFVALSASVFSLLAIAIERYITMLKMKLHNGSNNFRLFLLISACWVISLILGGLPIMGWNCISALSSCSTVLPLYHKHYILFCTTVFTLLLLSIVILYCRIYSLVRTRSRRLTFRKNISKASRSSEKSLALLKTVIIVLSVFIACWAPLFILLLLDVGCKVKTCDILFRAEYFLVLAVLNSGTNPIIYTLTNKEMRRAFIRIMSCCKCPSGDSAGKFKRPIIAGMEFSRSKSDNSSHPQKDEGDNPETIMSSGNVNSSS
Chain of S1P3 (Q99500 whole entry, species assumed): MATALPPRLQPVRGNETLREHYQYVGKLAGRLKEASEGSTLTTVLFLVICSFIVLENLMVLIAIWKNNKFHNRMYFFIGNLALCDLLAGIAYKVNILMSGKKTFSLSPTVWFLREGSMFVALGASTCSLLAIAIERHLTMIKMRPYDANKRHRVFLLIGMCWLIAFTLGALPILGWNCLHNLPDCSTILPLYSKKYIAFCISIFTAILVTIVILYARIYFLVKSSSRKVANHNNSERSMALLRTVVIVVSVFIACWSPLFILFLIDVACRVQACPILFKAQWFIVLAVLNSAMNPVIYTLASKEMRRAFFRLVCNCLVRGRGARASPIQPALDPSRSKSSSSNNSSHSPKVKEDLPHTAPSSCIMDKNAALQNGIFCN

In general, EC50 refers to the midpoint of the concentration-response curve. A higher EC50 goes with a less potent agent. A word on the Ki: it is the equilibrium dissociation constant of an inhibitor or competing ligand from its target. “4-[4-[3-(2,5-difluorophenyl)-1,2,4-oxadiazol-5-yl]-1-(2-fluorophenyl)-1H-pyrazol-5-yl]pyridine [Example 8]”: the EC50 at S1P1 [1] turned out to be 3 nM. The compound further yielded an inhibition constant Ki on S1P1 [2] of 3 nM.

As to `COCc1c(-c2nc(-c3cc(F)ccc3F)no2)cnn1-c1ccccc1` [Example 1, 3-(2,5-difluorophenyl)-5-(5-(methoxymethyl)-1-phenyl-1H-pyrazol-4-yl)-1,2,4-oxadiazole], the concentration giving a half-maximal response (EC50) is > 20000 nM at S1P3 and 304 nM at S1P1 [1]. Also, affinity at S1P1 [2] was put at a Ki of 272 nM.

`Fc1ccc(F)c(-c2noc(-c3cnn(-c4ccccc4)c3-c3ccccc3)n2)c1` [Example 3, 3-(2,5-difluorophenyl)-5-(1,5-diphenyl-1H-pyrazol-4-yl)-1,2,4-oxadiazole] returned a concentration giving a half-maximal response (EC50) on S1P1 [1] of 77 nM. In addition, the Ki on S1P1 [2] is 8 nM.

With `Cc1ccccc1-n1ncc(-c2nc(-c3cc(F)ccc3F)no2)c1-c1ccccc1` [Example 5, 3-(2,5-difluorophenyl)-5-(5-phenyl-1-o-tolyl-1H-pyrazol-4-yl)-1,2,4-oxadiazole], the EC50 on S1P1 [1] worked out at 255 nM. The Ki on S1P1 [2] is 13 nM.

`Fc1ccc(-n2ncc(-c3nc(-c4cc(F)ccc4F)no3)c2-c2ccccc2)cc1` [Example 6, 3-(2,5-difluorophenyl)-5-(1-(4-fluorophenyl)-5-phenyl-1H-pyrazol-4-yl)-1,2,4-oxadiazole]: it took 235 nM to reach a half-maximal effect at S1P1 [1] (EC50). In addition, at S1P1 [2], the Ki amounted to 13 nM.

For `CS(=O)(=O)c1cccc(-c2noc(-c3cnn(-c4ccccc4F)c3-c3ccncc3)n2)c1` [Example 9, 4-(1-(2-fluorophenyl)-4-{3-[3-(methylsulfonyl)phenyl]-1,2,4-oxadiazol-5-yl}-1H-pyrazol-5-yl)pyridine], the EC50 at S1P3 is > 20000 nM; on S1P1 [1] it was 28 nM. This compound also gave a Ki at S1P1 [2] of 5 nM.

As to `Fc1ccc(F)c(-c2noc(-c3cnn(C4CCCCC4)c3-c3ccccc3)n2)c1` [Example 11], the figures for the EC50 on S1P3 and at S1P1 [1] were 142 nM and 6 nM, respectively. At S1P1 [2], this compound displayed an inhibitory constant (Ki) of 9 nM.

Consider `CC(C)Cn1ncc(-c2nc(-c3cc(F)ccc3F)no2)c1-c1ccccc1` [Example 12, 3-(2,5-difluorophenyl)-5-(1-isobutyl-5-phenyl-1H-pyrazol-4-yl)-1,2,4-oxadiazole], for which a half-maximal response on S1P1 [1] (EC50) required 36 nM. Affinity at S1P1 [2] was put at a Ki of 7 nM.

As to `CCOC(=O)Cn1ncc(-c2nc(-c3cc(F)ccc3F)no2)c1-c1ccccc1` [Example 13, ethyl {4-[3-(2,5-difluorophenyl)-1,2,4-oxadiazol-5-yl]-5-phenyl-1H-pyrazol-1-yl}acetate], the response on S1P1 [1] was half-maximal at 96 nM (EC50). The same compound had a Ki at S1P1 [2] of 23 nM.

Turning to `CC(C)Cn1ncc(-c2nc(-c3cc(F)ccc3F)no2)c1-c1ccncc1` [Example 19, 4-{4-[3-(2,5-difluorophenyl)-1,2,4-oxadiazol-5-yl]-1-isobutyl-1H-pyrazol-5-yl}pyridine], the EC50 at S1P1 [1] was found to be 18 nM. The compound further yielded an inhibitory constant (Ki) on S1P1 [2] of 9 nM.

Regarding `Fc1ccc(F)c(-c2noc(-c3cnn(C4CCCCC4)c3-c3ccncc3)n2)c1` [Example 23, 5-(1-cyclohexyl-5-(pyridin-4-yl)-1H-pyrazol-4-yl)-3-(2,5-difluorophenyl)-1,2,4-oxadiazole], a half-maximal effect at S1P1 [1] (EC50) was put at 4 nM. At S1P1 [2], this compound displayed a Ki of 5 nM.

For the compound `FC(F)(F)c1cccc(-c2noc(-c3cnn(C4CCCCC4)c3-c3ccncc3)n2)c1` [Example 28, 4-(1-cyclohexyl-4-{3-[3-(trifluoromethyl)phenyl]-1,2,4-oxadiazol-5-yl}-1H-pyrazol-5-yl)pyridine], the EC50 at S1P3 amounted to 2660 nM; on S1P1 [1] it was 16 nM.

On to `Fc1ccc(F)c(-c2noc(-c3cnn(C4CCCCC4)c3C3CCOCC3)n2)c1` [Example 31, 5-[1-cyclohexyl-5-(tetrahydro-2H-pyran-4-yl)-1H-pyrazol-4-yl]-3-(2,5-difluorophenyl)-1,2,4-oxadiazole], for which the half-maximal effective concentration (EC50) at S1P3 was > 20000 nM; at S1P1 [1], 12 nM.

With `CC1CCCCC1n1ncc(-c2nc(-c3cc(F)ccc3F)no2)c1-c1ccncc1` (stereo not drawn) [Example 34, 4-[4-[3-(2,5-difluorophenyl)-1,2,4-oxadiazol-5-yl]-1-(2-methylcyclohexyl)-1H-pyrazol-5-yl]pyridine], the concentration giving a half-maximal response (EC50) is 1610 nM at S1P3 and 6 nM at S1P1 [1].

Consider `CC(C)Cn1ncc(-c2nc(-c3cccc(C(F)(F)F)c3)no2)c1-c1ccncc1` [Example 37, 4-(1-isobutyl-4-{3-[3-(trifluoromethyl)phenyl]-1,2,4-oxadiazol-5-yl}-1H-pyrazol-5-yl)pyridine], for which the values for the half-maximal effective concentration (EC50) at S1P3 and at S1P1 [1] were > 20000 nM and 9 nM, respectively.

Turning to `c1cc(-c2c(-c3nc(-c4ccc5[nH]ncc5c4)no3)cnn2C2CCCCC2)ccn1` [Example 38, 5-[5-(1-cyclohexyl-5-pyridin-4-yl-1H-pyrazol-4-yl)-1,2,4-oxadiazol-3-yl]-1H-indazole], the EC50 worked out at 474 nM at S1P3 and 3 nM on S1P1 [1]. Moreover, affinity on S1P1 [2] was put at a Ki of 68 nM.

`CC(C)Cn1ncc(-c2nc(-c3ccc4[nH]ncc4c3)no2)c1-c1ccncc1` [Example 40, 5-[5-(1-isobutyl-5-pyridin-4-yl-1H-pyrazol-4-yl)-1,2,4-oxadiazol-3-yl]-1H-indazole]: the EC50 worked out at 523 nM on S1P3 and 11 nM at S1P1 [1].

On to `CN(C)Cc1ccc(-c2noc(-c3cnn(C4CCCCC4)c3-c3ccncc3)n2)cc1` [Example 41, 1-{4-[5-(1-cyclohexyl-5-pyridin-4-yl-1H-pyrazol-4-yl)-1,2,4-oxadiazol-3-yl]phenyl}-N,N-dimethylmethanamine], for which the values for the EC50 on S1P3 and at S1P1 [1] were 486 nM and 9 nM, respectively.

On to `O=C(O)C1CN(Cc2ccc(-c3noc(-c4cnn(C5CCCCC5)c4-c4ccncc4)n3)cc2)C1` [Example 42, 1-{4-[5-(1-cyclohexyl-5-pyridin-4-yl-1H-pyrazol-4-yl)-1,2,4-oxadiazol-3-yl]benzyl}azetidine-3-carboxylic acid], for which the values for the EC50 at S1P3 and on S1P1 [1] were 1020 nM and 1 nM, respectively.

With `C[C@@H]1CCCC[C@@H]1n1ncc(-c2nc(-c3cc(F)ccc3F)no2)c1-c1ccccc1` [Example 47, 3-(2,5-difluorophenyl)-5-{1[(1S,2R)-2-methylcyclohexyl]-5-phenyl-1H-pyrazol-4-yl}-1,2,4-oxadiazole], the EC50 at S1P3 stood at 571 nM; at S1P1 [1], 8 nM.

Regarding `CC(C)Cn1ncc(-c2nc(-c3ccc(CN4CC(C(=O)O)C4)cc3)no2)c1-c1ccncc1` [Example 79, 1-(4-(5-(1-isobutyl-5-(pyridin-4-yl)-1H-pyrazol-4-yl)-1,2,4-oxadiazol-3-yl)benzyl)azetidine-3-carboxylic acid], the EC50 on S1P3 amounted to 1470 nM; on S1P1 [1] it was 9.5 nM. The same compound registered a Ki at S1P1 [2] of 2.3 nM.

With `CC(C)Cn1ncc(-c2nc(-c3ccc(CNCCC(=O)O)cc3)no2)c1-c1ccncc1` [Example 89, 3-(4-(5-(1-isobutyl-5-(pyridin-4-yl)-1H-pyrazol-4-yl)-1,2,4-oxadiazol-3-yl)benzylamino)propanoic acid], the EC50 at S1P3 was determined as 1640 nM; at S1P1 [1], 12 nM.

With `c1cc(-c2c(-c3nc(-c4ccc(Cn5cncn5)cc4)no3)cnn2C2CCCCC2)ccn1` [Example 91, 3-(4-((1H-1,2,4-triazol-1-yl)methyl)phenyl)-5-(1-cyclohexyl-5-(pyridin-4-yl)-1H-pyrazol-4-yl)-1,2,4-oxadiazole], the EC50 is 147 nM at S1P3 and 8.5 nM at S1P1 [1].

Consider `CC(C)Cn1ncc(-c2nc(-c3ccc(CN4CC(C(=O)O)C4)cc3)no2)c1C1CCOCC1` [Example 96, 1-(4-(5-(1-isobutyl-5-(tetrahydro-2H-pyran-4-yl)-1H-pyrazol-4-yl)-1,2,4-oxadiazol-3-yl)benzyl)azetidine-3-carboxylic acid], for which the concentration for a half-maximal effect (EC50) at S1P3 was 2250 nM; at S1P1 [1], 31 nM. The compound further displayed a Ki on S1P1 [2] of 6.5 nM.

`CC(C)(C)Cn1ncc(-c2nc(-c3ccc(CN4CC(C(=O)O)C4)cc3)no2)c1-c1ccncc1` [Example 105, 1-(4-(5-(1-neopentyl-5-(pyridin-4-yl)-1H-pyrazol-4-yl)-1,2,4-oxadiazol-3-yl)benzyl)azetidine-3-carboxylic acid]: at S1P1 [1], it took 42 nM to reach a half-maximal effect (EC50). Also, the Ki on S1P1 [2] stood at 34 nM.

Compound `c1cc(-c2c(-c3nc(-c4ccc(Cn5ccnc5)cc4)no3)cnn2C2CCCCC2)ccn1` [Example 136, 4-{2-Cyclohexyl-4-[3-(4-imidazol-1-ylmethyl-phenyl)-[1,2,4]oxadiazol-5-yl]-2H-pyrazol-3-yl}-pyridine] showed a half-maximal effective concentration (EC50) on S1P3 of 58.3 nM. This counts as double-digit nanomolar.

The values above are taken from US8802663B2, “Pyrazole oxadiazole derivatives as S1P1 agonists” (Merck Serono SA, priority 2009, dated 2014).
